Assay: xn = mol fraction of the nth substance listed

CCOc1ccccc1 + CCCCCCCCCO
viscosity [mPa·s], 101.3 kPa
Conditions	x1 = 0.1012	x1 = 0.2001	x1 = 0.3006	x1 = 0.4009	x1 = 0.5013	x1 = 0.6023	x1 = 0.7018	x1 = 0.8005	x1 = 0.8997
293.15 K	8.86	6.725	5.095	3.858	2.948	2.293	1.853	1.578	1.424
298.15 K	7.33	5.611	4.298	3.299	2.57	2.039	1.692	1.488	1.361
308.15 K	5.241	4.17	3.295	2.614	2.089	1.697	1.394	1.17	1.023
318.15 K	3.906	3.16	2.525	2.033	1.654	1.371	1.152	0.9714	0.8556

CCOc1ccccc1 + CCCCCCCCO
viscosity [mPa·s], 101.3 kPa
Conditions	x1 = 0.1001	x1 = 0.1976	x1 = 0.2997	x1 = 0.4014	x1 = 0.4996	x1 = 0.6027	x1 = 0.7022	x1 = 0.8015	x1 = 0.9016
293.15 K	6.96	5.353	4.171	3.317	2.691	2.194	1.86	1.63	1.491
298.15 K	5.929	4.669	3.644	2.894	2.361	1.947	1.68	1.502	1.36
308.15 K	4.308	3.441	2.698	2.152	1.742	1.436	1.234	1.111	1.042
318.15 K	3.31	2.701	2.153	1.7	1.386	1.143	0.9913	0.9148	0.8795

CCCCCCCCn1cc[n+](C)c1.[Cl-] + CCCCCCCC[n+]1ccn(C)c1.F[B-](F)(F)F
101 kPa
Conditions	viscosity [mPa·s]
303.15 K, x1 = 0.2	529.1
308.15 K, x1 = 0.2	381.3
308.15 K, x1 = 0.4	756.6
313.15 K, x1 = 0.4	534.9
318.15 K, x1 = 0.4	386.7
318.15 K, x1 = 0.6	735.5
323.15 K, x1 = 0.6	523

CCOc1ccccc1 + CCCCCCCO
viscosity [mPa·s], 101.3 kPa
Conditions	x1 = 0.0989	x1 = 0.1998	x1 = 0.2988	x1 = 0.4017	x1 = 0.5011	x1 = 0.6101	x1 = 0.7004	x1 = 0.8009	x1 = 0.9031
293.15 K	5.488	4.237	3.317	2.62	2.147	1.814	1.606	1.47	1.388
298.15 K	4.761	3.758	2.978	2.379	1.916	1.583	1.412	1.295	1.252
308.15 K	3.737	2.957	2.382	1.91	1.58	1.318	1.171	1.066	1.001
318.15 K	2.785	2.261	1.846	1.517	1.28	1.083	0.9726	0.8947	0.8422

Reference: the CheMixHub viscosity set
